Reference: the NIST ThermoML archive (doi:10.1016/j.fluid.2013.05.016)
Numbers after ± are expanded uncertainties.

Settings: Liquid; for mass density: 298.2 K, 101.33 kPa, Vibrating tube method; for vapor or sublimation pressure / Normal boiling temperature: Ebulliometric method (Recirculating still)

Row | Compound | mass density | vapor or sublimation pressure (417.5 K) | Normal boiling temperature | vapor or sublimation pressure (353.3 K) | vapor or sublimation pressure (371.4 K) | vapor or sublimation pressure (423.8 K) | vapor or sublimation pressure (383.4 K)
1 | Cc1ccccc1C [1,2-dimethylbenzene] | 875.66 ± 0.24 kg/m3 | 101.3 ± 1.1 kPa | 144.4 ± 1 °C | – | – | – | –
2 | c1ccccc1 [benzene] | 873.66 ± 0.24 kg/m3 | – | 80.2 ± 1 °C | 101.3 ± 1.1 kPa | – | – | –
3 | CCCCCCC [heptane] | 679.52 ± 0.24 kg/m3 | – | 98.2 ± 1 °C | – | 101.3 ± 1.1 kPa | – | –
4 | CCCCCCCCC [nonane] | 714.07 ± 0.24 kg/m3 | – | 150.7 ± 1 °C | – | – | 101.3 ± 1.1 kPa | –
5 | Cc1ccccc1 [toluene] | 862.18 ± 0.24 kg/m3 | – | 110.2 ± 1 °C | – | – | – | 101.3 ± 1.1 kPa
